Assay results: PubChem BioAssay AID743369
pKi: −log10 of the molar value. Activity calls are given as the source filed them. How the calls were made is not given here.

Molecular target: Acetylcholine-binding protein (Lymnaea stagnalis) (UniProt P58154)
Experiment: acetylcholine-binding protein ligand affinity – biochemical, Lymnaea stagnalis, His-tagged, [125I]alpha-bungarotoxin (AID 743369)
Conditions: Purified AChBP, [125I]-alpha-bungarotoxin displacement, filtration

Chain of Acetylcholine-binding protein (Lymnaea stagnalis) (P58154 whole entry, looked up): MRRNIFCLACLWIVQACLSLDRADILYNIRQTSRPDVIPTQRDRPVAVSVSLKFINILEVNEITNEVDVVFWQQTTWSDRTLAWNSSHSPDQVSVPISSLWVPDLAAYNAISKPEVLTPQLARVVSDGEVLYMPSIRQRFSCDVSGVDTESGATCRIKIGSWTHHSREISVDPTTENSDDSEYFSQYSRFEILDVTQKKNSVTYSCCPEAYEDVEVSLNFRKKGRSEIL

CC/C=C/[C@@H]1CC[C@]2(C[C@H]3CC[C@H]4[C@@H](C(=O)OC(CC)CCCCCCCCCCCCC[C@@H]5O[C@](O)(CCN)[C@H](O)N(CCCN)C5=O)[C@@]5(CCC[C@H](C)O5)NC(=[N+]34)N2)O1 (stereo partly specified)
pKi: 5.60

COn1c(Br)c2c3c(cccc31)[C@H]1C[C@@H](C)CN(C)[C@@H]1C2
pKi: 6.08

C[C@@H](N)[C@H](O)CCCCCCCC(=O)CCCCCCCCCCCCCC[C@@H](O[C@@H]1O[C@H](CO)[C@H](O)[C@H](O)[C@H]1O)[C@@H](C)N
pKi: 4.55

COc1cc(CCN)c2c(c1OC)SSSSS2
pKi: 6.10

NC1=N/C(=C2/CCNC(=O)c3[nH]ccc32)C(=O)N1
Ki: inactive

COc1cc2c3c(ccnc3c1OC)NC=C2
pKi: 5.52
